The text below walks through data of ChEMBL document CHEMBL1131630, “(Z,Z)-2,7-Bis(4-amidinobenzylidene)cycloheptan-1-one: identification of a highly active inhibitor of blood coagulation factor Xa” (J Med Chem, 1998).

For one test, the target named is Coagulation factor X (Homo sapiens, UniProt P00742). The test is described as follows: Compound (isomer) was tested in the absence of light for inhibitory activity against Human Coagulation factor X.
A further test addresses T1, Serine protease 1 (Bos taurus, UniProt P00760).
T1 sequence (P00760 whole entry): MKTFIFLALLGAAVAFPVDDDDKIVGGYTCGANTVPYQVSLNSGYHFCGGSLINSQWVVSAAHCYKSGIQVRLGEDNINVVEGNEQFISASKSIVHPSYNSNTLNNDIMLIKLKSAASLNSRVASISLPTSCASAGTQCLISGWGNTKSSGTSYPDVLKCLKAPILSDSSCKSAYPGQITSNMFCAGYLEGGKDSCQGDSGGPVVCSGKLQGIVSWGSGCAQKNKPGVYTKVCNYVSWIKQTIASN
The test can be described thus: Compound (isomer) was tested in the absence of light for inhibitory activity against trypsin.

The next test has as its target Prothrombin (Homo sapiens, UniProt P00734). The test is described as follows: Compound (isomer) was tested in the absence of light for inhibitory activity against thrombin.

Coagulation factor X, sequence (P00742 41-179 limits assumed): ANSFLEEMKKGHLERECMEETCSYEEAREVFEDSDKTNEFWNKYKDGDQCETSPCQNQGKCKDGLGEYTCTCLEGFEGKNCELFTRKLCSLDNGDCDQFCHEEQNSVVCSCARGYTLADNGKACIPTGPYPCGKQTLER
Coagulation factor X, sequence (P00742 235-488 limits assumed): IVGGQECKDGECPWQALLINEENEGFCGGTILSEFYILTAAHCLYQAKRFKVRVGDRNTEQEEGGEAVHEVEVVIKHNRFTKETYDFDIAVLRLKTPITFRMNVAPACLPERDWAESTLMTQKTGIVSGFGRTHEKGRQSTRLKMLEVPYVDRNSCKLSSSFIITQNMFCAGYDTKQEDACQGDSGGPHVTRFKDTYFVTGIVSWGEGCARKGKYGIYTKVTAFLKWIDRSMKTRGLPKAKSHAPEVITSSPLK

For the molecule `N=C(N)c1ccc(/C=C2\CCCC/C(=C\c3ccc(C(=N)N)cc3)C2=O)cc1`, the Ki at Coagulation factor X is 17 µM; at Serine protease 1, 280 nM.
Regarding `N=C(N)c1ccc(/C=C2/CCCC/C(=C\c3ccc(C(=N)N)cc3)C2=O)cc1`, the Ki on Serine protease 1 worked out at 29 nM; on Prothrombin it was 130 nM.

In general, Ki refers to the dissociation constant of the complex between target and ligand, obtained from inhibition or displacement.
